Measurements reported in US10785978B2, “Control and repellency of biting flies, house flies, ticks, ants, fleas, biting midges, cockroaches, spiders and stink bugs” (priority 2012, dated 2020).

How the values were obtained:
Format in all cases: in vivo
German cockroaches = experiment: German cockroach repellency, choice of food stations in arena; settings: 50% in acetone; at 4 hours
Procedure: The efficacy of compounds of this invention to control or repel German cockroaches was illustrated using the following protocol. One food pellet each was placed on a paper square (station) treated with one of the repellent materials. Materials were diluted to 50% in acetone and a straight acetone station was also used. Both stations were placed on the same side of the arena. Cockroaches were starved for 2 days and then released into the arena. They were given a choice to feed on either food pellet. A control arena with an acetone treated station and an untreated station was also used. The distribution of cockroaches within the arena was recorded at 30 minute intervals over 4 hours. Repellency at 4 hours was calculated by the number of cockroaches on the untreated station vs. the total number of cockroaches on the stations.

[1] = test system: Brown Dog Ticks, Rhipicephalus sanguineus
From the text: The following protocol was employed to test compounds of this invention for toxicity (mortality) against ticks. There were 5 replicates of 5 dog ticks for each treatment. […] Filter paper strips were laid on a sheet of aluminum foil and enough of each of the test sample was applied to thoroughly saturate the paper. The paper was then rolled and placed inside a glass shell vial as to line the sides of the vial. A small paper disc, also saturated with the test sample, was then placed at the bottom of the vial. Brown Dog Ticks, Rhipicephalus sanguineus, were then introduced into the vials which were covered with aluminum foil, the inside of which was painted with some of the test sample. The ticks remained in the vials, constantly exposed to the test samples, for the duration of the test. A small hole was poked through the foil for ventilation. Each control replicate was subjected to the same procedures outlined above, except that they were not treated. The controls were placed in the same area as the test replicates for the duration of the test. Mortality observations were made at 24 hours. Ticks were classified as alive (able to move normally), moribund (those classified as moribund will show some movement, but will not be able to crawl in a coordinated manner, or will be unable to right themselves if placed on their backs), or dead (no movement after physical stimuli). All dead ticks were confirmed by probing or agitation to make sure that they are unable to move; any that show movement visible to the naked eye were recorded as moribund. At 24 hours the tick mortality was 0% for the control, 100% for γ-dodecalactone, 100% for methyl apritone and 76% for methyl dihydrojasmonate.

sand flies P. papatasi = experiment: Sand fly bite test on treated human skin with K&D module; settings: for percent biting, Treatment level 5%: 5% compound in isopropyl alcohol on human skin; for percent biting, Treatment level 5% / percent biting, Treatment level-10%: five minute exposure, percent of control biting taken as 100%; for percent biting, Treatment level-10%: 10% compound in isopropyl alcohol on human skin; for sand flies repelled: at 5%
Procedure: Control against sand flies was determined by the following protocol as generally described in J. Med. Entomol. 43 (6), 1248-1252 (2006). Volunteers wearing short pants were seated. Using a skin-marking template and a washable-ink marker, skin areas represented by 3- by 4-cm floor opening of six cells of a K&D module were outlined on the outer, top and inner thigh position of each leg of the volunteers. The six treated cell rectangles each represented a random block, and each volunteer had three blocks on each of two thighs. All treatments against the sand flies P. papatasi, were pipetted onto a 4- by 5-cm rectangular area (so the area of skin covered by a treatment exceeded the template marks by 0.5 cm in every direction) of the subjects' skin with 55 ul of isopropyl alcohol/treatment containing 10% or 5% compound/ul isopropyl alcohol. Treating a slightly larger area ensured that the areas beneath each K&D module contained only treated skin. Skin treated with isopropyl alcohol alone served as control. In all tests adjacent cells of the K&D module were supplied with ten sand flies. The sand fly charged K&D module was positioned over the treated skin areas and the trap doors of the K&D module above the areas were opened. After a five minute skin exposure the trap doors were closed. The number of sand fly bites was recorded for each cell. The percent biting is the percent compared to the biting for the control which was taken as 100%.

house flies = experiment: House fly repellency on treated filter paper food trays in cages; settings: 5% in isopropyl alcohol; over 6 hours
Procedure: The bottom of each cage was lined with brown craft paper and divided into 4 equal quadrants. Each quadrant housed a makeshift filter paper food tray. Two of the four filter papers were treated with repellent and two treated with isopropanol. Control cages contained filter papers that were treated with 4 filter papers of isopropanol only. The number of flies resting on filter paper per quadrant was recorded every 30 minutes for a total of 6 hours. Cages were rotated to eliminate positional bias. […] Each of the test samples were diluted in isopropyl alcohol.

## CCCCCC1C(=O)CCC1CC(=O)OCC=C(C)C (centres unmarked) [Prenyl dihydrojasmonate]
German cockroaches
  % Repellency 4 hr: 87.5%

## CCCCCC1CC(C)=CC(O)C1 (centres unmarked) [3-Methyl-5-Pentyl-2-cyclohexenol, 3-methyl-5-pentyl-2-cyclohexenol]
[1]; 10%, constant exposure 24 hours
  morbidity at 24 hr: 100%
[1]; in vivo
  24 hr mortality (%): 12%

## Methyl apritol
Sand flies P. papatasi
  percent biting, Treatment level 5%: 12.5%
  percent biting, Treatment level-10%: 0%
  sand flies repelled: 87.5%

## CCCCCCCCCC1CCCC(=O)O1 (centres unmarked) [delta Tetradecalactone]
House flies
  Overall % Repellency: 76%

## Farnesyl cyclopentanone
German cockroaches
  % Repellency 4 hr: 100%

## CCCCCC1C(O)CCC1CC(=O)OC (centres unmarked) [Methyl dihydrojasmolate]
Sand flies P. papatasi
  percent biting, Treatment level 5%: 0%
  percent biting, Treatment level-10%: 0%
  sand flies repelled: 100%
